Assays:
[1] = biological target: T1, telomerase (Homo sapiens, UniProt O14746); experiment: Telomerase extension of 32P-end labeled primers with a single dNTP (percent primer extension); type: biochemical; design: made in house; anti-FLAG immunopurification, eluted with 3xFLAG peptide
[2] = biological target: T1, telomerase; experiment: Telomerase extension after insertion of modified dNTP (percent of product terminated at each template position); type: biochemical; design: made in house; anti-FLAG immunopurification, eluted with 3xFLAG peptide; settings: 50 μM each dATP, dTTP and dGTP or 6-thio-dGTP, Mean
Protocol: Direct telomerase assays were conducted with 5 nM ^32P-end labeled primer a and d Primer 3 (AGGGTT)3, b Primer 1 (TTAGGG)3, or c Primer 2 […]. […] Products were separated on denaturing gels. Letters on the y-axis of the graph indicate the template base; P indicates unextended 18-mer primer. Graphs represent percent of product terminated at each template position as a function of total products. Images are representative of, and data are the mean ± s.d. from, three independent experiments. Source data are provided as a Source Date file.
The reactions were started by the addition of 3 μl of immunopurified telomerase eluent, incubated at 37 °C for 1 h, then terminated with 2 μl of […] and heat inactivated at 65 °C for 20 min. An equal volume of loading buffer (94% formamide, 0.1× TBE, 0.1% bromophenol blue, 0.1% xylene cyanol) was added to the reaction eluent. The samples were heat denatured for 10 min at 100 °C and loaded onto a 14% denaturing acrylamide gel (7 M urea, 1× TBE) and electrophoresed for 90 min at constant 38 W. Samples were imaged using a Typhoon phosphorimager (GE Healthcare). Percent primer extension was calculated with ImageQuant TL 8.2 by measuring the intensity of each product band and dividing by the total radioactivity in the lane or total products, as indicated in the figure legends.

T1 sequence (O14746 whole entry): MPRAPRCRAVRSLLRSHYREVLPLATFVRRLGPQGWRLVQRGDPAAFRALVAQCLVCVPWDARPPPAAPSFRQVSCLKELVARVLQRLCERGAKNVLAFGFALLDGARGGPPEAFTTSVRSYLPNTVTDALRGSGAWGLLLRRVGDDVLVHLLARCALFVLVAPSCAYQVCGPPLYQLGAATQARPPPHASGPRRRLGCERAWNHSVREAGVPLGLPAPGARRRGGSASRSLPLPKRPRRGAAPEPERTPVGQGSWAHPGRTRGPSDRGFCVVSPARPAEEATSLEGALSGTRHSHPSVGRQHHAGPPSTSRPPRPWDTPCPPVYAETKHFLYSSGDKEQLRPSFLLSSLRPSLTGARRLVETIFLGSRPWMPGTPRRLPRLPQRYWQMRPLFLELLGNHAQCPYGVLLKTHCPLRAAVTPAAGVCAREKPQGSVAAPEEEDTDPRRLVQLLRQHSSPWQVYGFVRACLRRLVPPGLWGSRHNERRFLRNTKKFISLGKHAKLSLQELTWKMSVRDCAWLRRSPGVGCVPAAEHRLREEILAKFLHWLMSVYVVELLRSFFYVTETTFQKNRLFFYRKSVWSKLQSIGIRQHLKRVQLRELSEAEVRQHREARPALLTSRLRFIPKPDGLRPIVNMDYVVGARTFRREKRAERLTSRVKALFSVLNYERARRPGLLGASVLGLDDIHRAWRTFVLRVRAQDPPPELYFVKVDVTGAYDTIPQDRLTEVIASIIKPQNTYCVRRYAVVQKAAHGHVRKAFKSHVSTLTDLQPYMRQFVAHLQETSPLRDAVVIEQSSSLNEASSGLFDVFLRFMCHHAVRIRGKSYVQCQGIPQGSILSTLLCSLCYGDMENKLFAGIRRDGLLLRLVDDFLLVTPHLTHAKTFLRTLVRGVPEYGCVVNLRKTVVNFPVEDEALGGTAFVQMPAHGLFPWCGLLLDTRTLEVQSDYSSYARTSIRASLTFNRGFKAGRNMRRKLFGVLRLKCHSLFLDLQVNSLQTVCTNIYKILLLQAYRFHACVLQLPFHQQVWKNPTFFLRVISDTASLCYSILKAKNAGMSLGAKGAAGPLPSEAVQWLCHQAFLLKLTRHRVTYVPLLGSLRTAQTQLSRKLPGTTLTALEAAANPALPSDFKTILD

**Q.** How did the “% Primer Extension” value ([1]; Primer 1, 5 µM dGTP, one experiment) turn out when `Nc1nc2c(ncn2C2CC(O)C(COP(=O)(O)OP(=O)(O)OP(=O)(O)O)O2)c(=O)[nH]1` (stereo not drawn) [dGTP] was run?
**A.** Its value is 5.54%.

**Q.** And the “% Primer Extension” value ([1]; Primer 1, 50 µM dGTP, one experiment)?
**A.** The value was 14.06%.

**Q.** And the “% Primer Extension” value ([1]; Primer 1, 500 µM dGTP, one experiment)?
**A.** The value was 18.26%.

**Q.** And the “% Primer Extension” value ([1]; Primer 2, 5 µM dGTP, one experiment)?
**A.** Its value is 20.91%.

**Q.** What about the “% Primer Extension” value ([1]; Primer 2, 50 µM dGTP, one experiment) of the same compound?
**A.** Its value is 31.85%.

**Q.** And the “% Primer Extension” value ([1]; Primer 2, 500 µM dGTP, one experiment)?
**A.** The value was 40.91%.

**Q.** And the “% Primer Extension” value ([1]; Primer 3, 5 µM dGTP, one experiment)?
**A.** Its value is 2.22%.

**Q.** What about the “% Primer Extension” value ([1]; Primer 3, 50 µM dGTP, one experiment) of the same compound?
**A.** Its value is 6.90%.

**Q.** What about the “% Primer Extension” value ([1]; Primer 3, 500 µM dGTP, one experiment) of the same compound?
**A.** The value was 12.81%.

**Q.** What about the “% Primer Extension” value ([1]; time course, 50 μM dGTP, primer 2 (GGTTAG)3, 0 minutes) of the same compound?
**A.** The value was 0.00%.

**Q.** What about the “% Primer Extension” value ([1]; time course, 50 μM dGTP, primer 2 (GGTTAG)3, 1 minute) of the same compound?
**A.** The value was 1.70%.

**Q.** And the “% Primer Extension” value ([1]; time course, 50 μM dGTP, primer 2 (GGTTAG)3, 3 minutes)?
**A.** Its value is 2.22%.

**Q.** And the “% Primer Extension” value ([1]; time course, 50 μM dGTP, primer 2 (GGTTAG)3, 5 minutes)?
**A.** Its value is 2.61%.

**Q.** What about the “% Primer Extension” value ([1]; time course, 50 μM dGTP, primer 2 (GGTTAG)3, 9 minutes) of the same compound?
**A.** The value was 2.82%.

**Q.** And the “% Primer Extension” value ([1]; time course, 50 μM dGTP, primer 2 (GGTTAG)3, 15 minutes)?
**A.** Its value is 7.50%.

**Q.** What about the “% Primer Extension” value ([1]; time course, 50 μM dGTP, primer 2 (GGTTAG)3, 30 minutes) of the same compound?
**A.** The value was 7.57%.

**Q.** What about the “% Primer Extension” value ([1]; time course, 50 μM dGTP, primer 2 (GGTTAG)3, 45 minutes) of the same compound?
**A.** The value was 7.80%.

**Q.** And the “% Primer Extension” value ([1]; time course, 50 μM dGTP, primer 4 (GTTAGG)3, 0 minutes)?
**A.** Its value is 0.00%.

**Q.** And the “% Primer Extension” value ([1]; time course, 50 μM dGTP, primer 4 (GTTAGG)3, 1 minute)?
**A.** The value was 1.79%.

**Q.** What about the “% Primer Extension” value ([1]; time course, 50 μM dGTP, primer 4 (GTTAGG)3, 3 minutes) of the same compound?
**A.** Its value is 0.86%.

**Q.** And the “% Primer Extension” value ([1]; time course, 50 μM dGTP, primer 4 (GTTAGG)3, 5 minutes)?
**A.** Its value is 1.17%.

**Q.** And the “% Primer Extension” value ([1]; time course, 50 μM dGTP, primer 4 (GTTAGG)3, 9 minutes)?
**A.** Its value is 1.23%.

**Q.** And the “% Primer Extension” value ([1]; time course, 50 μM dGTP, primer 4 (GTTAGG)3, 15 minutes)?
**A.** The value was 1.72%.

**Q.** And the “% Primer Extension” value ([1]; time course, 50 μM dGTP, primer 4 (GTTAGG)3, 30 minutes)?
**A.** The value was 4.10%.

**Q.** And the “% Primer Extension” value ([1]; time course, 50 μM dGTP, primer 4 (GTTAGG)3, 45 minutes)?
**A.** Its value is 8.71%.

**Q.** What about the “Percent of Total Product” value ([2]; Fig 4b, Primer 1 (TTAGGG)3, terminated at rA3) of the same compound?
**A.** Its value is 7.65%.

**Q.** What about the “Percent of Total Product” value ([2]; Fig 4b, Primer 1, terminated at rA4) of the same compound?
**A.** Its value is 5.26%.

**Q.** What about the “Percent of Total Product” value ([2]; Fig 4b, Primer 1, terminated at rC1) of the same compound?
**A.** The value was 0.66%.

**Q.** And the “Percent of Total Product” value ([2]; Fig 4b, Primer 1, terminated at rC2)?
**A.** The value was 0.40%.

**Q.** And the “Percent of Total Product” value ([2]; Fig 4b, Primer 1, terminated at rC6)?
**A.** The value was 4.56%.

**Q.** And the “Percent of Total Product” value ([2]; Fig 4b, Primer 1, terminated at rU5)?
**A.** Its value is 0.95%.

**Q.** And the “Percent of Total Product” value ([2]; Fig 4c, Primer 2, terminated at rA3)?
**A.** Its value is 5.15%.

**Q.** And the “Percent of Total Product” value ([2]; Fig 4c, Primer 2, terminated at rA4)?
**A.** The value was 4.76%.

**Q.** What about the “Percent of Total Product” value ([2]; Fig 4c, Primer 2, terminated at rC1) of the same compound?
**A.** The value was 7.39%.

**Q.** And the “Percent of Total Product” value ([2]; Fig 4c, Primer 2, terminated at rC2)?
**A.** The value was 1.97%.

**Q.** And the “Percent of Total Product” value ([2]; Fig 4c, Primer 2, terminated at rC6)?
**A.** The value was 6.22%.

**Q.** And the “Percent of Total Product” value ([2]; Fig 4c, Primer 2, terminated at rU5)?
**A.** The value was 1.19%.

**Q.** What about the “Percent of Total Product” value ([2]; Fig 4d, Primer 3 (AGGGTT)3, terminated at rU5) of the same compound?
**A.** The value was 4.50%.

**Q.** What about the “Percent of Total Product” value ([2]; Fig 4d, Primer 3, terminated at rA3) of the same compound?
**A.** The value was 2.21%.

**Q.** What about the “Percent of Total Product” value ([2]; Fig 4d, Primer 3, terminated at rC1) of the same compound?
**A.** Its value is 1.49%.

**Q.** And the “Percent of Total Product” value ([2]; Fig 4d, Primer 3, terminated at rC2)?
**A.** Its value is 0.72%.

**Q.** And the “Percent of Total Product” value ([2]; Fig 4d, Primer 3, terminated at rC6)?
**A.** The value was 8.67%.
